Here are results for 25 molecules from ChEMBL document CHEMBL1944613, “Cloning, characterization and sulfonamide inhibition studies of an α-carbonic anhydrase from the living fossil sponge Astrosclera willeyana” (Bioorg Med Chem, 2012).

In this test the target is T1, Astrosclerin-3 (Astrosclera willeyana, UniProt A6YCJ1).
T1 sequence (A6YCJ1 whole entry): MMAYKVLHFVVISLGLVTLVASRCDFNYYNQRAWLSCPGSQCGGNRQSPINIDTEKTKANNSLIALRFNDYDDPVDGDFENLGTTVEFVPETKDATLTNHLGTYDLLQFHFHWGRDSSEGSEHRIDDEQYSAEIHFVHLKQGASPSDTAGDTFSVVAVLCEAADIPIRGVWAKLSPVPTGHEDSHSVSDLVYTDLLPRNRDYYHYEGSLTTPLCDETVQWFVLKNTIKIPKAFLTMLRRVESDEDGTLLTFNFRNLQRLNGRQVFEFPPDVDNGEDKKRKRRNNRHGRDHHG
Description: Inhibition of GST-tagged astrosclera willeyana Astrosclerin-3 expressed in Escherichia coli after 15 mins preincubation by stopped flow CO2 hydration assay
Regarding `NCCc1ccc(S(N)(=O)=O)cc1`, the affinity corresponds to a Ki of 715 nM.
As for `CC1(C)O[C@@H]2[C@@H](CO[C@@]3(COS(N)(=O)=O)OC(C)(C)O[C@@H]23)O1` [TOPIRAMATE], the Ki (usually a dissociation constant, usually derived from enzyme kinetics or from competition with a known ligand) worked out at 38 nM.
With `Nc1ccc(S(N)(=O)=O)cc1Cl`, affinity was put at a Ki of 884 nM.
Take `O=C1NS(=O)(=O)c2ccccc21` [SACCHARIN]: the Ki was 751 nM.
In the case of `NNc1ccccc1S(N)(=O)=O`, the Ki is 8850 nM.
The molecule `NS(=O)(=O)c1ccc(C(=O)O)cc1` [CARZENIDE] yielded a Ki of 1210 nM.
As to `Nc1c(Br)cc(S(N)(=O)=O)cc1Br`, affinity was put at a Ki of 965 nM.
Molecule `Nc1ccc(S(=O)(=O)Nc2nnc(S(N)(=O)=O)s2)cc1` registered a Ki of 3.9 nM.
For `NCc1ccc(S(N)(=O)=O)cc1` [MAFENIDE], the Ki stood at 973 nM.
Then `Nc1ccc(S(N)(=O)=O)cc1F`, with 890 nM; and `Cc1ccc(-c2cc(C(F)(F)F)nn2-c2ccc(S(N)(=O)=O)cc2)cc1` [CELECOXIB], with 732 nM.
As to `NS(=O)(=O)c1ccc(S(=O)(=O)Nc2cccc3c(Cl)c[nH]c23)cc1`, the Ki is 423 nM.
As for `Cc1ccc(S(N)(=O)=O)cc1` [P-TOLUENESULFONAMIDE], the Ki was 675 nM.
In turn, `Nc1c(F)cc(S(=O)(=O)Nc2nnc(S(N)(=O)=O)s2)cc1Cl` registered a Ki of 2.8 nM.
`NNc1ccc(S(N)(=O)=O)cc1` came in with a Ki of 6080 nM.
The molecule `Cn1nc(S(N)(=O)=O)sc1=N` gave a Ki of 393 nM.
Molecule `NS(=O)(=O)c1ccc(CCNC(=O)c2ccc(S(N)(=O)=O)cc2)cc1` gave a Ki of 34 nM.
For the molecule `NS(=O)(=O)c1ccc(CCO)cc1`, the Ki was 1380 nM.
To `Nc1ccc(S(=O)(=O)NCCc2ccc(S(N)(=O)=O)cc2)cc1` belongs 16 nM; to `NS(=O)(=O)c1ccc(CO)cc1`, 4260 nM; to `Nc1ccc(S(N)(=O)=O)cc1` [SULFANILAMIDE], 7700 nM.
For `Nc1nccc(Nc2ccc(S(N)(=O)=O)cc2)n1`, the inhibitory constant (Ki) was 54 nM.
With `NS(=O)(=O)c1nnc(NS(=O)(=O)c2ccccc2)s1` [BENZOLAMIDE], the Ki came to 32 nM.
As for `Nc1c(I)cc(S(N)(=O)=O)cc1I`, the Ki turned out to be 879 nM.
The molecule `CCN[C@H]1CN(CCCOC)S(=O)(=O)c2sc(S(N)(=O)=O)cc21` [BRINZOLAMIDE] yielded a Ki of 278 nM.
